Legend:
Assay in all cases: relative viability (nuclei count vs DMSO), 5 days (fraction); higher = more cells survive
Crenolanib + OSI-027 = compound: CC1(COc2ccc3c(c2)ncn3-c2ccc3cccc(N4CCC(N)CC4)c3n2)COC1 [Crenolanib] + COc1cccc2cc(-c3nc([C@H]4CC[C@H](C(=O)O)CC4)n4ncnc(N)c34)[nH]c12 [OSI-027] (partner 0.5 µM)
How it was run: (§1)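 Nuclei were stained with Hoechst during a one-step fixation (final 0.05% Triton X-100, 1% formaldehyde, 1 ug/ml Hoechst) carried out 5 days after dosing, then counted on 4× images. The cells, lung cancer lines in 1536-well plates, had been dosed by pin tool the day after seeding with one drug alone or a fixed anchor-drug dose plus five library-drug doses (not always all listed) in √10 steps. Relative viability is the nuclei count in treated wells divided by that in vehicle wells, and each value is the median of duplicate plates.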

Crenolanib + Phenformin = compound: CC1(COc2ccc3c(c2)ncn3-c2ccc3cccc(N4CCC(N)CC4)c3n2)COC1 [Crenolanib] + N=C(N)NC(=N)NCCc1ccccc1 [Phenformin] (partner 250 µM)
How it was run: as §1

Tivantinib + Luminespib = compound: O=C1NC(=O)[C@@H](c2cn3c4c(cccc24)CCC3)[C@@H]1c1c[nH]c2ccccc12 [Tivantinib] + CCNC(=O)c1noc(-c2cc(C(C)C)c(O)cc2O)c1-c1ccc(CN2CCOCC2)cc1 [Luminespib] (partner 0.01 µM)
How it was run: as §1

Crenolanib + Linsitinib = compound: CC1(COc2ccc3c(c2)ncn3-c2ccc3cccc(N4CCC(N)CC4)c3n2)COC1 [Crenolanib] + C[C@]1(O)C[C@@H](c2nc(-c3ccc4ccc(-c5ccccc5)nc4c3)c3c(N)nccn32)C1 [Linsitinib] (partner 1 µM)
How it was run: as §1

Row | Cell Line | relative viability (Crenolanib + OSI-027; first compound 0.01 µM) | relative viability (Crenolanib + OSI-027; first compound 0.03162 µM) | relative viability (Crenolanib + OSI-027; first compound 0.1 µM) | relative viability (Crenolanib + OSI-027; first compound 0.3162 µM) | relative viability (Crenolanib + OSI-027; first compound 1 µM) | relative viability (Crenolanib + Phenformin; first compound 0.01 µM) | relative viability (Crenolanib + Phenformin; first compound 0.03162 µM) | relative viability (Crenolanib + Phenformin; first compound 0.1 µM) | relative viability (Crenolanib + Phenformin; first compound 0.3162 µM) | relative viability (Crenolanib + Phenformin; first compound 1 µM) | relative viability (Tivantinib + Luminespib; first compound 0.01 µM) | relative viability (Tivantinib + Luminespib; first compound 0.03162 µM) | relative viability (Tivantinib + Luminespib; first compound 0.1 µM) | relative viability (Tivantinib + Luminespib; first compound 0.3162 µM) | relative viability (Crenolanib + Linsitinib; first compound 0.01 µM) | relative viability (Crenolanib + Linsitinib; first compound 0.03162 µM) | relative viability (Crenolanib + Linsitinib; first compound 0.1 µM) | relative viability (Crenolanib + Linsitinib; first compound 0.3162 µM) | relative viability (Crenolanib + Linsitinib; first compound 1 µM)
1 | NCI-H1792 | 0.756 | 0.82 | 0.691 | 0.723 | 0.647 | 0.185 | 0.351 | 0.244 | 0.282 | 0.317 | 0.479 | 0.323 | 0.338 | 0.391 | 0.603 | 0.648 | 0.554 | 0.532 | 0.518
2 | NCI-H2085 | 0.707 | 0.745 | 0.706 | 0.865 | 0.709 | 0.742 | 0.745 | 0.63 | 0.7 | 0.631 | 0.429 | 0.379 | 0.403 | 0.42 | 0.998 | 0.896 | 0.913 | 0.932 | 0.873
3 | NCI-H2023 | 0.466 | 0.426 | 0.378 | 0.434 | 0.292 | 0.407 | 0.415 | 0.409 | 0.441 | 0.376 | 0.867 | 0.82 | 0.673 | 0.528 | 0.669 | 0.678 | 0.626 | 0.801 | 0.621

From the supplement of paper PMC10307832
